We go through 12 molecules from PubChem BioAssay (NCI).

Among the test systems are A498 renal; COLO 205 colon; HCT-15 colon; HT29 colon; K-562 leukemia; KM12 colon; NCI/ADR-RES ovarian; SF-539 CNS; SK-OV-3 ovarian; U251 CNS.
What all share (test): NCI-60 cell line screen, 48 h

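Cells were grown in 96-well plates and exposed to each compound for 48 hours at five concentrations; endpoints were interpolated linearly between bracketing concentrations, or set to the highest concentration if not reached. GI50 marks 50% less growth. TGI: concentration producing complete growth inhibition.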

With `CC(=O)Nc1ccc(OC/C(N)=N/NC(=O)c2ccncc2)cc1`, the TGI in the assay on A498 renal, in the assay on COLO 205 colon, in the assay with HCT-15 colon, with HT29 colon, with K-562 leukemia and in the assay with KM12 colon was more than 100 µM throughout. For the same molecule, the TGI in the assay on NCI/ADR-RES ovarian, in the assay on SF-539 CNS, in the assay with SK-OV-3 ovarian and in the assay on U251 CNS was more than 100 µM throughout.

For `CC(C)C(C/C=C1\CC(CO)(COC(=O)C2CCCCC2)OC1=O)C(C)C` (stereo not given), the TGI was more than 100 µM in the assay with A498 renal; 23.6 µM with COLO 205 colon; 38.8 µM with HCT-15 colon; 79.5 µM in the assay with HT29 colon; 55.6 µM in the assay on K-562 leukemia; 39.5 µM in the assay with KM12 colon. Moreover, the TGI in the assay on NCI/ADR-RES ovarian is 45.1 µM; with SF-539 CNS, 36.3 µM; in the assay with SK-OV-3 ovarian, more than 100 µM; in the assay on U251 CNS, 44.1 µM.

Turning to `Cc1nnc2n1N=C(c1ccc(Cl)cc1Cl)/C(=C/c1ccc(-c3ccc([N+](=O)[O-])cc3Cl)o1)S2`, the GI50 with A498 renal is 31.7 µM; in the assay with COLO 205 colon it was 54.8 µM; in the assay with HCT-15 colon, 16.9 µM; in the assay with HT29 colon it was 49.9 µM; in the assay with K-562 leukemia, 13.6 µM; in the assay with KM12 colon, 32.4 µM. For the same molecule, the GI50 with NCI/ADR-RES ovarian is 18.4 µM; in the assay with SF-539 CNS it was 18.5 µM; in the assay with SK-OV-3 ovarian, more than 100 µM; with U251 CNS it was 14.9 µM. Moreover, the TGI was 95.8 µM in the assay with A498 renal; more than 100 µM with COLO 205 colon; 42.9 µM with HCT-15 colon; more than 100 µM with HT29 colon; 26.9 µM with K-562 leukemia; more than 100 µM in the assay with KM12 colon. The TGI with NCI/ADR-RES ovarian was 37.4 µM; with SF-539 CNS, 36.6 µM; in the assay with SK-OV-3 ovarian, more than 100 µM; in the assay with U251 CNS, 30.2 µM.

In the case of `O=C(O)c1ccccc1N=Cc1ccc(N(CCCl)CCCl)cc1`, the TGI is more than 57.7 µM in the assay on A498 renal; more than 100 µM in the assay on COLO 205 colon; more than 100 µM in the assay on HCT-15 colon; more than 100 µM with HT29 colon; more than 100 µM in the assay on K-562 leukemia; more than 100 µM in the assay on KM12 colon. For the same molecule, the TGI in the assay with NCI/ADR-RES ovarian, in the assay on SF-539 CNS, with SK-OV-3 ovarian and in the assay on U251 CNS was more than 100 µM each time.

Consider `O=C(CCN1CCN2c3ccccc3CCC2C1)c1ccc(F)cc1` (stereo not given), for which the TGI was more than 100 µM with A498 renal; 44.4 µM with COLO 205 colon; 55.1 µM in the assay on HCT-15 colon; 41.7 µM in the assay with HT29 colon; more than 100 µM in the assay with K-562 leukemia; more than 100 µM in the assay with KM12 colon. Besides, the TGI with NCI/ADR-RES ovarian was more than 100 µM; with SF-539 CNS, 39.9 µM; in the assay on SK-OV-3 ovarian, more than 100 µM; in the assay on U251 CNS, more than 100 µM.

With `COC(=O)C1C(=O)N(C)C(=O)N2CCCC12` (stereo not given), the TGI in the assay on A498 renal, in the assay on COLO 205 colon, in the assay with HCT-15 colon, with HT29 colon, in the assay with K-562 leukemia and in the assay with KM12 colon was more than 100 µM each time. In addition, the TGI in the assay with NCI/ADR-RES ovarian, in the assay with SF-539 CNS, in the assay with SK-OV-3 ovarian and with U251 CNS was more than 100 µM in each case.

Regarding `Cc1ccccc1-c1nc2c(C(=O)NCCN(C)C)cccc2[nH]1`, the TGI in the assay with A498 renal was more than 100 µM; in the assay with COLO 205 colon, 51.9 µM; with HCT-15 colon it was more than 100 µM; in the assay with HT29 colon, more than 100 µM; in the assay with K-562 leukemia it was more than 61.1 µM; in the assay with KM12 colon, more than 100 µM. For the same molecule, the TGI with NCI/ADR-RES ovarian, in the assay with SF-539 CNS, with SK-OV-3 ovarian and in the assay with U251 CNS was more than 100 µM each time.

Turning to `CC1(C)CC(=O)C2(CC(CSc3ccccc3)C(CS(=O)(=O)c3ccccc3)C2)C(=O)C1` (stereo not given), the TGI in the assay with A498 renal, in the assay on COLO 205 colon, in the assay with HCT-15 colon, with HT29 colon, in the assay on K-562 leukemia and with KM12 colon was more than 100 µM each time. Moreover, the TGI with NCI/ADR-RES ovarian, with SF-539 CNS, in the assay with SK-OV-3 ovarian and in the assay on U251 CNS was more than 100 µM in each case.

As for `CN(C)CCn1c(CO)nc2c1c(=O)n(C)c(=O)n2C`, the TGI in the assay on A498 renal, in the assay with COLO 205 colon, with HCT-15 colon, with HT29 colon, with K-562 leukemia and in the assay with KM12 colon was more than 100 µM each time. Moreover, the TGI in the assay with NCI/ADR-RES ovarian, in the assay on SF-539 CNS, with SK-OV-3 ovarian and in the assay on U251 CNS was more than 100 µM in each case.

On to `CC(C)/C(Cl)=N\OC(NC(=O)P(=O)(c1ccccc1)c1ccccc1)(C(F)(F)F)C(F)(F)F`, for which the TGI in the assay with A498 renal came out at 28.6 µM; in the assay with COLO 205 colon, 26.5 µM; in the assay on HCT-15 colon, 37.8 µM; in the assay on HT29 colon it was 59.1 µM; in the assay on K-562 leukemia, 23.8 µM; in the assay on KM12 colon, 23.1 µM. Besides, the TGI with NCI/ADR-RES ovarian was 42.2 µM; with SF-539 CNS, 27.6 µM; in the assay on SK-OV-3 ovarian it was more than 100 µM; with U251 CNS, 12 µM.

For `CC1(C)CC2(CC(C)(C)N1O)NC(=O)OC2=O`, the TGI with A498 renal, with COLO 205 colon, in the assay on HCT-15 colon, with HT29 colon, in the assay with K-562 leukemia and in the assay on KM12 colon was more than 100 µM each time. Further, the TGI with NCI/ADR-RES ovarian, in the assay on SF-539 CNS, in the assay on SK-OV-3 ovarian and with U251 CNS was more than 100 µM throughout.

In the case of `C=C=C(CC(CC(=C)Br)(C(=O)OC)C(=O)OC)S(=O)(=O)c1ccccc1`, the TGI is 14.7 µM with A498 renal; 3.26 µM in the assay on COLO 205 colon; 3.44 µM in the assay on HCT-15 colon; 2.95 µM in the assay with HT29 colon; more than 100 µM in the assay with K-562 leukemia; 5.81 µM in the assay with KM12 colon. Moreover, the TGI amounted to 5.96 µM in the assay with NCI/ADR-RES ovarian, 3.33 µM with SF-539 CNS, 30.2 µM with SK-OV-3 ovarian and 2.95 µM with U251 CNS.
